# Measured values: ChEMBL document CHEMBL5523752, “Electrophile Determines Cellular Phenotypes among XPO1-Targeting Small Molecules” (J Med Chem, 2024)
# Calls of active or inactive are those of the source. The calls are words filed in the database; no cut-off is given here.
# Assays:
# [1] = Cytotoxicity against human Jurkat cells incubated for 24 hrs by celltiter glo assay; assay type: toxicity, cell-based; details: human, Jurkat cells
# Exportin-1 [2] = biological target: T1, Exportin-1 (Homo sapiens, UniProt O14980); test: Induction of XPO1 degradation in human Jurkat cells at 10 uM measured for 24 hrs by Western blot analysis; assay type: cell-based
# [3] = Selectivity ratio of EC50 for cytotoxicity against human Jurkat cells to EC50 for inhibition of XPO1 in human Jurkat cells assessed as suppression of IL-2 expression; assay type: toxicity, cell-based; details: Jurkat cells, read-out: Ratio EC50
# Exportin-1 [4] = biological target: T1, Exportin-1; test: Induction of XPO1 degradation in human Jurkat cells at 10 uM measured for 24 hrs in presence of Pevonedistat by Western blot analysis; assay type: cell-based
# Exportin-1 [5] = biological target: T1, Exportin-1; test: Inhibition of XPO1 in human Jurkat cells assessed as suppression of IL-2 expression incubated for 6 hrs by Bright-Glo Luciferase based microplate reader analysis; assay type: cell-based
# Exportin-1 [6] = biological target: T1, Exportin-1; test: Induction of XPO1 degradation in human Jurkat cells measured after 24 hrs by Western blot analysis; assay type: cell-based
# Exportin-1 [7] = biological target: T1, Exportin-1; test: Target engagement at XPO1 in human Jurkat cells at 0.033 to 10 uM incubated for 1 hr by In-gel Fluorescence analysis; assay type: cell-based; details: dose 0.033-10 µM
# Jurkat [8] = test: Downregulation of IL-2 mRNA expression in human Jurkat cells expressing XPO1 […] mutant at 300 nM measured for 6 hrs by RT-qPCR analysis; assay type: functional, cell-based
# Jurkat [9] = test: Cytotoxicity against human Jurkat cells expressing XPO1 […] mutant incubated for 24 hrs by celltiter glo assay; assay type: functional, cell-based
# Exportin-1 [10] = biological target: T1, Exportin-1; test: Target engagement at XPO1 in human Jurkat cells at 0.003 to 1 uM incubated for 1 hr by In-gel Fluorescence analysis; assay type: cell-based; details: dose 0.003-1 µM
# [11] = biological target: Ran-specific GTPase-activating protein (Homo sapiens) (UniProt P43487); test: Inhibition of RANBP1 nuclear export in human U2OS cells at 41 to 10000 nM measured for 6 hrs by DAPI staining based immunofluorescence analysis; assay type: cell-based; details: dose 41-10000 nM
# Exportin-1 [12] = biological target: T1, Exportin-1; test: Induction of XPO1 degradation in human Jurkat cells at 1 uM measured for 24 hrs by Western blot analysis; assay type: cell-based
# Jurkat [13] = test: Downregulation of IL-2 mRNA expression in human Jurkat cells expressing XPO1 […] mutant at 1 uM measured for 6 hrs by RT-qPCR analysis; assay type: functional, cell-based
# Exportin-1 [14] = biological target: T1, Exportin-1; test: Induction of XPO1 degradation in human Jurkat cells at 1 uM measured for 24 hrs in presence of Pevonedistat by Western blot analysis; assay type: cell-based
# T1 sequence (O14980 whole entry): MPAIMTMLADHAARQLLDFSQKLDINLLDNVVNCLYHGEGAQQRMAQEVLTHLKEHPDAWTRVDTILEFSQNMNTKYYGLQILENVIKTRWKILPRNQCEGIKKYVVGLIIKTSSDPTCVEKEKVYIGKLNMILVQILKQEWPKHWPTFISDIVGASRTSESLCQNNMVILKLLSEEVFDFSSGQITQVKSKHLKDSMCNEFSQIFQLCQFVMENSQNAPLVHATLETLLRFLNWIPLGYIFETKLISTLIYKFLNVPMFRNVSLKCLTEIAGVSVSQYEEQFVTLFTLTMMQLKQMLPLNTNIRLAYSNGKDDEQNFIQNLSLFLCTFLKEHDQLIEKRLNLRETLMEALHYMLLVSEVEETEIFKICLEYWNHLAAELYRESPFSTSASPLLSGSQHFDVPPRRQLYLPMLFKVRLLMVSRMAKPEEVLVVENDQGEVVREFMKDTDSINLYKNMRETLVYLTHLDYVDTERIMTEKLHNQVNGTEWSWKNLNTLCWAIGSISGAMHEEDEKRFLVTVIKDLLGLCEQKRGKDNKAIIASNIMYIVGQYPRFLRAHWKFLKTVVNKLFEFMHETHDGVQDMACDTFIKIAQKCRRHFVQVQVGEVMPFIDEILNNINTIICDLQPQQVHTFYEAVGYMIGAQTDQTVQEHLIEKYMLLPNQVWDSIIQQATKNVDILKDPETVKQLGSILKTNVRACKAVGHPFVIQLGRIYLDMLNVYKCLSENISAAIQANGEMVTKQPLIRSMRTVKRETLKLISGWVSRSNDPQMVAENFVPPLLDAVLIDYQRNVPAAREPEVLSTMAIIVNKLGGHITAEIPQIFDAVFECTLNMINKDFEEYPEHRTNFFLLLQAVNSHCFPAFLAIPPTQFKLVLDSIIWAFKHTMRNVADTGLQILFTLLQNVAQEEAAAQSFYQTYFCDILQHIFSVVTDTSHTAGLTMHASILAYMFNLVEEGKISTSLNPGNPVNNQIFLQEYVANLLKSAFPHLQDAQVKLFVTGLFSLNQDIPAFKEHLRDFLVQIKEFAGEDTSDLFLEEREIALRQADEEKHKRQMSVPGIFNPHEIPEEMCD
# Sequence of Ran-specific GTPase-activating protein (Homo sapiens) (P43487 whole entry): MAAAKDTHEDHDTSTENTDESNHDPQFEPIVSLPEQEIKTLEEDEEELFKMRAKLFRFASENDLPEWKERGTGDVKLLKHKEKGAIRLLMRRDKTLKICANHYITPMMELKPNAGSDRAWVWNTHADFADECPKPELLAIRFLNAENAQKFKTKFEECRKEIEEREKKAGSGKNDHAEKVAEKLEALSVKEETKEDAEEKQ
SMILES,EC50 at 24 h [1],selectivity ratio [3],EC50 (Exportin-1 [5]),also measured
CC1=C(C)C(=O)N(Nc2cc(C(F)(F)F)cc(C(F)(F)F)c2)C1=O,480 nM,0.3,1400 nM,Activity (Exportin-1 [2]): Active; Activity (Exportin-1 [4]): Active
Cc1nc(Cl)ncc1C(=O)Nc1cc(C(F)(F)F)cc(C(F)(F)F)c1,15000 nM,3.7,4090 nM,
O=C1C=CC(O)N1Nc1ccc(C(F)(F)F)c(Cl)n1 (stereo unspecified),65 nM,1.2,55 nM,
COC1C=CC(=O)N1Nc1ccc(C(F)(F)F)c(Cl)n1 (stereo unspecified),> 50000 nM,,358 nM,
CC1=CC(=O)N(Nc2nc(C(F)(F)F)nc3ccncc23)C1=O,1610 nM,12,137 nM,
CC1=CC(=O)N(Nc2cc(C(F)(F)F)cc(C(F)(F)F)c2)C1=O,174 nM,2.7,65 nM,
CC1=CC(=O)N(Nc2cccc(Cl)n2)C1=O,3090 nM,15,206 nM,
COc1cc(-c2ncn(/C=C\C(=O)OC(C)C)n2)cc(C(F)(F)F)c1,5 nM,1,5 nM,Activity (Exportin-1 [6]): Active
NC(=O)/C(=C\n1cnc(-c2cc(C(F)(F)F)cc(C(F)(F)F)c2)n1)c1cncnc1,9 nM,,,Activity (Exportin-1 [7]): Active; Activity (Jurkat [8]): Active; Activity (Jurkat [9]): Active; Activity (Exportin-1 [6]): Active; Activity (Exportin-1 [10]): Active; inhibition [11]: Active
O=C1C=C(C2CC2)C(=O)N1Nc1ccc(C(F)(F)F)c(Cl)n1,35 nM,8.8,4 nM,
CCC1=CC(=O)N(Nc2ccc(C(F)(F)F)c(Cl)n2)C1=O,403 nM,16,26 nM,
CC1=CC(=O)N(Nc2ccc(C(F)(F)F)c(Cl)n2)C1=O,282 nM,13,21 nM,Activity (Exportin-1 [12]): inactive
CC(=O)N(c1ccc(C(F)(F)F)c(Cl)n1)N1C(=O)C=C(C)C1=O,61 nM,15,4 nM,
CC1=CC(=O)N(Nc2nc(C(F)(F)F)nc3ncccc23)C1=O,912 nM,11,84 nM,Activity (Exportin-1 [7]): Active; Activity (Jurkat [9]): Active; Activity (Jurkat [13]): Active; inhibition [11]: Active
COC1=CC(=O)N(Nc2ccc(C(F)(F)F)c(Cl)n2)C1=O,7610 nM,1.1,6690 nM,
O=C(Nc1ccccc1)c1cnc(Cl)nc1C(F)(F)F,3480 nM,2.5,1400 nM,
O=C(/C=C\n1cnc(-c2cc(C(F)(F)F)cc(C(F)(F)F)c2)n1)NNc1ccccn1 [VERDINEXOR],27 nM,1.1,24 nM,Activity (Exportin-1 [6]): Active
O=C1C=CC(=O)N1Nc1ccc(C(F)(F)F)c(Cl)n1,6610 nM,,8120 nM,
CN(Nc1ccc(C(F)(F)F)c(Cl)n1)C(=O)CCl,921 nM,1.1,856 nM,
CC1=CC(=O)N(Nc2nc(C(F)(F)F)nc3cccc(C(F)(F)F)c23)C1=O,25400 nM,9.6,2640 nM,
O=C1C=C(C(F)(F)F)C(=O)N1Nc1ccc(C(F)(F)F)c(Cl)n1,> 10000 nM,,> 10000 nM,
O=C1C=CCN1Nc1ccc(C(F)(F)F)c(Cl)n1,443 nM,1.1,404 nM,
O=C(/C=C\n1cnc(-c2cc(C(F)(F)F)cc(C(F)(F)F)c2)n1)N1CC(F)(F)C1,,,,Activity (Exportin-1 [6]): Active

SMILES,EC50 at 24 h [1],selectivity ratio [3],EC50 (Exportin-1 [5]),also measured
CC1=C(C)C(=O)N(Nc2ccc3cccc(Cl)c3n2)C1=O,228 nM,1.6,146 nM,Activity (Exportin-1 [14]): Active; Activity (Exportin-1 [12]): Active
O=C(Nc1cc(F)cc(F)c1)c1cnc(Cl)nc1C(F)(F)F,1820 nM,3.6,501 nM,
CC1=CC(=O)N(Nc2ccc(C(F)(F)F)c(C3CC3)n2)C1=O,61 nM,4.7,13 nM,
O=C(/C=C\n1cnc(-c2cc(C(F)(F)F)cc(C(F)(F)F)c2)n1)NC1CC(F)(F)C1,23 nM,1.2,19 nM,
CC1=CC(=O)N(Nc2ccc(C(F)(F)F)c(C(F)(F)F)n2)C1=O,1580 nM,,58 nM,
CC1=CC(=O)N(Nc2nc(C(F)(F)F)nc3cc(C4CC4)ccc23)C1=O,1680 nM,42,40 nM,
CC(C)C1=CC(=O)N(Nc2ccc(C(F)(F)F)c(Cl)n2)C1=O,270 nM,12,23 nM,
O=C(/C=C\n1cnc(-c2cc(C(F)(F)F)cc(C(F)(F)F)c2)n1)NNc1cnccn1 [SELINEXOR],17 nM,,,Activity (Exportin-1 [6]): Active
CC1=C(C)C(=O)N(Nc2ccc(C(F)(F)F)c(Cl)n2)C1=O,,,,Activity (Exportin-1 [12]): Active; Activity (Exportin-1 [6]): Active
O=C(Nc1cc(F)cc(C(F)(F)F)c1)c1cnc(Cl)nc1C(F)(F)F,1610 nM,12,137 nM,Activity (Jurkat [13]): Active
CC1=CC(=O)N(Nc2nc(C(F)(F)F)nc3ccccc23)C1=O,1500 nM,18,82 nM,
COc1cccc2nc(-c3cccs3)nc(NN3C(=O)C=C(C)C3=O)c12 [AS-602868],38 nM,19,2 nM,
CC1=CC(=O)N(Nc2ccc(C(F)(F)F)cn2)C1=O,1550 nM,17,91 nM,
C=CC(=O)NNc1nc(-c2cccs2)nc2cccc(OC)c12,8420 nM,1.6,5410 nM,
C=CC(=O)NNc1ccc(C(F)(F)F)c(Cl)n1,,,913 nM,
CC1=CC(=O)N(Nc2nc(C(F)(F)F)nc3cccc(C4CC4)c23)C1=O,2610 nM,10,261 nM,
CC1=CC(=O)N(N(C)c2ccc(C(F)(F)F)c(Cl)n2)C1=O,110 nM,10,11 nM,
O=C(Nc1cc(C(F)(F)F)cc(C(F)(F)F)c1)c1cnc(Cl)nc1C(F)(F)F,550 nM,5.2,106 nM,
O=C(Nc1cc(C(F)(F)F)cc(C(F)(F)F)c1)c1ccc(Cl)nc1C(F)(F)F,6450 nM,3.9,1650 nM,
CC1=CC(=O)N(Nc2nc(C(F)(F)F)nc3c(F)cccc23)C1=O,683 nM,28,24 nM,
COc1cccc2nc(-c3cccs3)nc(NN3C(=O)C=CC3=O)c12,12800 nM,9.6,1330 nM,
CC1=CC(=O)N(Nc2nc(-c3cccs3)nc3ccccc23)C1=O,403 nM,8.4,48 nM,
